Laboratory results published in article PMC10810651, “Discovery of novel and potent CDK8 inhibitors for the treatment of acute myeloid leukaemia” (Journal of Enzyme Inhibition and Medicinal Chemistry, 2024).

Experiments:
[1] = system: MGC-803; assay: Antiproliferative CCK-8 assay, MGC-803; type: cell-based; settings: Homo sapiens; MGC-803, CCK-8 assay, means ± SD; read-out: GC50 (the source's name)
Description: (§1) Compounds12, 13 and 30 were selected for further cell activity assessments based on the enzymatic activity assessment results. molm-13 and MV4-11(acute myeloid lineage leukaemia cells), MGC-803 (gastric cancer cell), MDA-MB-231(breast cancer cell), A375 (melanoma cell), A549 (lung cancer cell), HCT-116, SW-480 and HT-29 (colorectal cancer cells) were selected to evaluate antitumor activity in vitro, GES-1 (gastric mucosal epithelial cell) was selected to evaluate toxicity in vitro.
(§2) CO2 atmosphere incubator for 24 h. Then, medium with compound at the concentrations of 100, 20, 4, 0.8, 0.016 μM was added into each well for another 48 h and incubated with CCK-8 (10 μL) for 2 h at 37 °C. The absorbance value at 450 nm was measured by the microplate reader (PerkinElmer Envision). […]

[2] = system: MDA-MB-231; assay: Antiproliferative CCK-8 assay, MDA-MB-231; type: cell-based; settings: Homo sapiens; MDA-MB-231, CCK-8 assay, means ± SD; read-out: GC50 (the source's name)
Description: as §1, §2

[3] = system: HCT-116; assay: Antiproliferative CCK-8 assay, HCT-116; type: cell-based; settings: Homo sapiens; HCT-116, CCK-8 assay, means ± SD; read-out: GC50 (the source's name)
Description: as §1, §2

[4] = target: CDK6 (Homo sapiens, UniProt Q00534); assay: CDKs selectivity, CDK6; type: biochemical
Description: (§3) CDK7 and CDK9 with the same transcription function and CDK2 and CDK6 were selected to evaluate the selectivity of compound 12.

[5] = target: CDK9 (Homo sapiens, UniProt P50750); assay: CDKs selectivity, CDK9; type: biochemical
Description: as §3

[6] = system: STAT1 S727; assay: Phosphorylation of STAT1 S727, western blot; type: cell-based; settings: HCT-116 cells, 1, 2, 4 μM, 12 h
Procedure: (§4) It has been reported that CDK8 could specifically target the transactivation domain of STAT1 at Ser727 phosphorylation. HCT-116 cells were treated with compounds 12 with different concentrations of 1 μM, 2 μM, 4 μM separately to verify compound 12 could inhibit the phosphorylation of STAT1 Ser727. […] It’s reported that CDK8 was also involved in S726 phosphorylation of STAT5 in AML cells.
(§5) Figure 6. Compound 12 inhibited phosphorylation of STAT1 S727 and STAT5 S726. (A) Compound 12 suppressed the phosphorylation of STAT1 S727 in a dose-dependent manner. HCT-116 cells were treated with compound for 12 h. (B) Compound 12 suppressed the phosphorylation of STAT5 S726 in a dose dependent manner. HL-60 cells were treated with or without compound for 12 h. The samples were analysed by Western blot.
(§6) 1.7 The effect of compound on phosphorylation of STAT1 S727
(§7) HCT-116 cells were seeded into 60 mm cultural dishes at a density of 1.5×10^6 cells per dishes. […] Levels of total STAT1, phosphorylated STAT1 S727, Y701 and GAPDH were analyzed. […]
(§8) Levels of total STAT5, phosphorylated STAT5 S726 and GAPDH were analyzed.
(§9) The results were expressed as the means ± SEMs (SPSS software), and the differences between groups were evaluated using Turkey’s method (GraphPad Software). […]

[7] = system: STAT1 Tyr701; assay: Phosphorylation of STAT1 Tyr701, western blot; type: cell-based; settings: HCT-116 cells, 1, 2, 4 μM, 12 h
Procedure: as §4, §6
HCT-116 cells were seeded into 60 mm cultural dishes at a density of 1.5×10^6 cells per dishes. After incubated for 12 h, cells were treated with DMSO or 10ng/mL IFN-γ.1 hour later, cells were treated with or without different concentrations of compound for 12 h. Cells were lysed using RIPA containing PMSF and phosphatase inhibitor cocktail A. Then cell samples were treated by western blot. Levels of total STAT1, phosphorylated STAT1 S727, Y701 and GAPDH were analyzed.
1.8 The effect of compound on phosphorylation of STAT5 S726
HL-60 cells were seeded into 60 mm cultural dishes at a density of 2×10^6 cells per dishes. […]
as §8, §9

[8] = system: STAT5 S726; assay: Phosphorylation of STAT5 S726, western blot; type: cell-based; settings: HL-60 cells, 12 h
Procedure: as §4, §5, §6, §7, §8, §9

[9] = system: CYP3A4/5; assay: CYP inhibition activity, 3A4/5 (M); type: in vitro ADME; settings: human; CYP 3A4/5 (M)
Description: Table 7. CYP inhibition activity. | column: IC50 (μM) / 3A4/5 (M)

[10] = target: CDK8 (Homo sapiens, UniProt P49336); assay: Biotin-pulldown assay; type: binding; design: endogenous in cells; host or cells: HCT-116; settings: HCT-116 or CDK8-transfected HEK293T cells; 2 μM biotinylated compound; 1, 2, 4 μM
Procedure: In previous study, a biotinylated compound with favourable CDK8 inhibition activity was designed and synthesized. Here, the pulldown assay was performed to determine compound 12 could bind CDK8. HCT-116 cells or HEK293T cells transfected with CDK8 plasmid labelled were treated with 2 μM biotinylated compound and compounds 12 with different concentrations of 1 μM, 2 μM, 4 μM separately.
CO2 atmosphere incubator for 24 h. Then, medium with compound at the concentrations of 100, 20, 4, 0.8, 0.016 μM was added into each well for another 48 h and incubated with CCK-8 (10 μL) for 2 h at 37 °C. The absorbance value at 450 nm was measured by the microplate reader (PerkinElmer Envision).
The kinase inhibition was detected by ADP-Glo™ Kinase Assay (Promega) using a black 384-well plate. The active CDK8 kinase was diluted in mixture (5 ng enzyme, 0.5 μg substrate, 50 μM DTT, 1 μL reaction buffer and added ddH2O to 3 μL each well) and the final ATP concentrations of was 50 μM. […] The data was collected by the microplate reader. […]
were broken by ultr asonic treatment and centrifuged at 12000 rpm for 20 min. The supernatant was analyzed by western blot. […]
After co-treated with 2 μM biotinylated compound and compound 12 for 12 h, HCT-116 cells were lysed with NP-40 containing PMSF and centrifuged at 14000 r for 30 min at 4 °C. […] The samples were analyzed by western blot.

CDK9, sequence (P50750 whole entry): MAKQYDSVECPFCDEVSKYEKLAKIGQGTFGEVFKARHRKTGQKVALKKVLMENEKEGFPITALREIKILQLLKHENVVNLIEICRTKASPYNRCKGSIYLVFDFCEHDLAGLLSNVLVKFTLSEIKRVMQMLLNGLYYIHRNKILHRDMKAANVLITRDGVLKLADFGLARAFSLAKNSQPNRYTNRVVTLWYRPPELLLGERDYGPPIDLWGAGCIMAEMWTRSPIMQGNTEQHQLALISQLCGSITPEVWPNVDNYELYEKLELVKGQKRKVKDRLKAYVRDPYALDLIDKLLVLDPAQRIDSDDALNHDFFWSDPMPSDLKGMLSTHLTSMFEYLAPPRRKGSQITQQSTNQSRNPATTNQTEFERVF
CDK8, sequence (P49336 whole entry): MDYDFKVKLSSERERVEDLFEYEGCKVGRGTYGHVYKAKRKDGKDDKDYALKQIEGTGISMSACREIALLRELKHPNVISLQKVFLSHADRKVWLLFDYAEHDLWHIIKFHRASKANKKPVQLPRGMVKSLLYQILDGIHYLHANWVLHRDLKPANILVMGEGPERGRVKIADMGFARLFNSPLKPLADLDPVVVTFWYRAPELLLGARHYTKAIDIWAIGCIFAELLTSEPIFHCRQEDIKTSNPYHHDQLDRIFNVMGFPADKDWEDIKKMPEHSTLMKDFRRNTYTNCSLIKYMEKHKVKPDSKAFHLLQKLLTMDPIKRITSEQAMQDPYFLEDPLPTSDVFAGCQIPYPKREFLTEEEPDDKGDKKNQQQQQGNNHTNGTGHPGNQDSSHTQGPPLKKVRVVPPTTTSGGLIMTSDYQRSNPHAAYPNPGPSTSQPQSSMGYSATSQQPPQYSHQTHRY
CDK6, sequence (Q00534 whole entry): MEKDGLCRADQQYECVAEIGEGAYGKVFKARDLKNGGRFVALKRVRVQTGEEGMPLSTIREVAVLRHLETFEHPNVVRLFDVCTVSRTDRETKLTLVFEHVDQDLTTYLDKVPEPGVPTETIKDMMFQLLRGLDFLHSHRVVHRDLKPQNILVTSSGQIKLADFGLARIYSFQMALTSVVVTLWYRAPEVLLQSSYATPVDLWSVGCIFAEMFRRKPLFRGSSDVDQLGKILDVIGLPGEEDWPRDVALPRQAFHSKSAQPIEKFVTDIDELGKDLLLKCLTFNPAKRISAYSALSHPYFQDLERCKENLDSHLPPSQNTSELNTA

SMILES: NC(=O)c1cccc(-c2cnc3[nH]cc(-c4ccoc4)c3c2)c1 [Compound 12, 3-(3-(furan-3-yl)-1H-pyrrolo[2,3-b]pyridin-5-yl)benzamide]
- IC50 [1]: 11.7 ± 1.93 µM
- IC50 [2]: > 50 µM
- IC50 [3]: 3.66 ± 1.94 µM
- IC50 [4]: 0.352 ± 0.0365 µM
- IC50 [5]: 0.474 ± 0.0253 µM
- Phosphorylation of STAT1 S727 [6]: significantly inhibited in a dose-dependent manner
- Phosphorylation of STAT1 Tyr701 [7]: not inhibited
- Phosphorylation of STAT5 S726 [8]: could inhibit phosphorylation of STAT5 S726 in a dose-dependent manner
- IC50 [9]: > 5e-05 M
- Competition with biotinylated compound for binding to CDK8 [10]: could inhibit the binding of biotinylated compound to CDK8
